Active and inactive are the calls of the source. The calls are words filed in the database; no cut-off is given here.
How the values were obtained:
Phytophthora cactorum [1] = experiment: Antifungal activity against Phytophthora cactorum at 10 mg/L in liquid culture medium; format: functional, organism-based
Phytophthora cactorum [2] = experiment: Growth promotion activity in Phytophthora cactorum at 10 mg/L in liquid culture medium; format: functional, organism-based
Phytophthora cactorum [3] = experiment: Effect on Phytophthora cactorum growth assessed as colony diameter at 10 mg/L after 6 days in solid culture medium; format: functional
Phytophthora cactorum [4] = experiment: Growth promotion activity of Phytophthora cactorum assessed as mycelial dry weight at 10 mg/L after 18 days in liquid culture medium; format: functional
Phytophthora cactorum [5] = experiment: Growth promotion activity of Phytophthora cactorum assessed as mycelial dry weight at 10 mg/L after 12 days in liquid culture medium; format: functional

| Compound | Activity (Phytophthora cactorum [1]) | Activity (Phytophthora cactorum [3]) | also measured |
| --- | --- | --- | --- |
| C=C(C)[C@@H]1CC[C@]2(C)CC[C@]3(C)[C@H](CC[C@@H]4[C@@]5(C)CCC(=O)C(C)(C)[C@@H]5CC[C@]43C)[C@@H]12 | Active |  |  |
| C[C@H]1[C@H](C)CC[C@]2(C)CC[C@]3(C)C(=CC[C@@H]4[C@@]5(C)CC[C@H](O)C(C)(C)[C@@H]5CC[C@]43C)[C@H]12 |  |  | Activity (Phytophthora cactorum [2]): Active |
| C=C(C)[C@@H]1CC[C@]2(C)CC[C@]3(C)[C@H](CC[C@@H]4[C@@]5(C)CC[C@H](O)C(C)(C)[C@@H]5CC[C@]43C)[C@@H]12 [LUPEOL] |  | 29.5 mm |  |
| CC(C)CCC[C@@H](C)[C@H]1CC[C@H]2[C@@H]3CC=C4C[C@@H](O)CC[C@]4(C)[C@H]3CC[C@]12C |  |  | Activity (Phytophthora cactorum [2]): Active |
| C=C(C)[C@@H]1CC[C@]2(CO)CC[C@]3(C)[C@H](CC[C@@H]4[C@@]5(C)CC[C@H](O)C(C)(C)[C@@H]5CC[C@]43C)[C@@H]12 [BETULIN] |  | 30.5 mm |  |
| C[C@H]1C(=O)CC[C@@H]2[C@]1(C)CC[C@H]1[C@@]2(C)CC[C@@]2(C)[C@@H]3CC(C)(C)CC[C@]3(C)CC[C@]12C | Active |  |  |
| CC(=O)OC(C)(C)/C=C/C(=O)[C@](C)(O)[C@H]1[C@H](O)C[C@@]2(C)[C@@H]3CC=C4[C@H](C[C@H](O)C(=O)C4(C)C)[C@]3(C)C(=O)C[C@]12C | Active |  |  |
| CC1(C)CC[C@]2(C)CC[C@]3(C)C(=CC[C@@H]4[C@@]5(C)CC[C@H](O)C(C)(C)[C@@H]5CC[C@]43C)[C@@H]2C1 [beta-AMYRIN] |  | 35 mm | Activity (Phytophthora cactorum [4]): 135 mg; Activity (Phytophthora cactorum [2]): Active |
| CC1(C)CCC[C@]2(C)[C@H]3CC[C@@H]4[C@@]5(C)CC[C@H](O)C(C)(C)[C@@H]5CC[C@@]4(C)[C@]3(C)CC[C@@H]12 [TETRAHYMANOL] |  |  | Activity (Phytophthora cactorum [4]): 135 mg; Activity (Phytophthora cactorum [2]): Active |
| C=C(C)[C@H]1CC[C@]2(C)[C@H]3CC[C@@H]4[C@@]5(C)CCCC(C)(C)[C@@H]5CC[C@@]4(C)[C@]3(C)CC[C@@H]12 | Active | 30 mm |  |
| CC(=O)OC(C)(C)/C=C/C(=O)[C@](C)(O)[C@H]1[C@H](O)C[C@@]2(C)[C@@H]3CC=C4[C@@H](CC[C@@H](O)C4(C)C)[C@]3(CO)C(=O)C[C@]12C [CUCURBITACIN C] | Active | 28 mm |  |
| CC(=O)OC(C)(C)/C=C/C(=O)[C@](C)(O)[C@H]1[C@H](O)C[C@@]2(C)[C@@H]3CC=C4[C@@H](C[C@H](O)C(=O)C4(C)C)[C@]3(CO)C(=O)C[C@]12C | Active |  |  |
| CC(C)=CCC[C@@H](C)[C@H]1CC[C@@]2(C)C3=C(CC[C@]12C)[C@@]1(C)CC[C@H](O)C(C)(C)[C@@H]1CC3 [LANOSTEROL] |  | 30.5 mm |  |
| CC(C)(O)/C=C/C(=O)[C@](C)(O)[C@H]1[C@H](O)C[C@@]2(C)[C@@H]3CC=C4[C@@H](C[C@H](O)C(=O)C4(C)C)[C@]3(C)C(=O)C[C@]12C | Active |  |  |
| CC(C)[C@H](C)CC[C@@H](C)[C@H]1CC[C@H]2[C@@H]3CC=C4C[C@@H](O)CC[C@]4(C)[C@H]3CC[C@]12C [CAMPESTEROL] |  |  | Activity (Phytophthora cactorum [5]): 125 mg; Activity (Phytophthora cactorum [4]): 200 mg |
| CC[C@H](CC[C@@H](C)[C@H]1CC[C@H]2[C@@H]3CC=C4C[C@@H](O)CC[C@]4(C)[C@H]3CC[C@]12C)C(C)C [BETA-SITOSTEROL] |  | 35 mm | Activity (Phytophthora cactorum [5]): 125 mg; Activity (Phytophthora cactorum [4]): 200 mg |
| CC1(C)CC[C@]2(C(=O)O)CC[C@]3(C)C(=CC[C@@H]4[C@@]5(C)CC[C@H](O)C(C)(C)[C@@H]5CC[C@]43C)[C@@H]2C1 [OLEANOLIC_ACID] |  | 29 mm |  |
| CC(C)=CCC[C@@H](C)[C@H]1CC[C@@]2(C)[C@@H]3CC[C@H]4C(C)(C)[C@@H](O)CC[C@@]45C[C@@]35CC[C@]12C [CYCLOARTENOL] |  | 31 mm |  |
| CC(=O)OC(C)(C)/C=C/C(=O)[C@](C)(O)[C@H]1[C@H](O)C[C@@]2(C)[C@@H]3CC=C4[C@@H](C=C(O)C(=O)C4(C)C)[C@]3(C)C(=O)C[C@]12C | Active |  |  |

Reference: ChEMBL document CHEMBL1151359, “Effects of Tetracyclic and Pentacyclic Triterpenoids on Growth of Phytophthora cactorum” (1981)
